In PubChem BioAssay AID256 (DTP/NCI, 2004):
Where “and” joins values, the source holds several entries; their conditions need not be identical. Equal values may be shown once. Inconclusive results and toxic doses are left out. The calls were made as follows: active = survival T/C of 150% or more; inactive = T/C below 125% in these data.

Test system: CD2F1 mice, L1210 leukemia ip, survival T/C
Experiment: NCI In Vivo Anticancer Drug Screen. Data for tumor model L1210 Leukemia (intraperitoneal) in CD2F1 (CDF1) mice
Conditions: endpoint: mean survival time, higher = longer survival
Method in brief: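 Ratio T/C, where T is the treated-group value and C the vehicle-dosed control value, from mice implanted with a transplantable tumor.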

[1] = dose: 100.0 mg/kg/injection, schedule: Q04DX003 (ip), vehicle: saline with Tween-80
[2] = dose: 200.0 mg/kg/injection, schedule: Q04DX003 (ip), vehicle: saline with Tween-80
[3] = dose: 400.0 mg/kg/injection, schedule: Q04DX003 (ip), vehicle: saline with Tween-80
[4] = dose: 100.0 mg/kg/injection, schedule: Q01DX009 (ip), vehicle: saline with Tween-80
[5] = dose: 200.0 mg/kg/injection, schedule: Q01DX009 (ip), vehicle: saline with Tween-80
[6] = dose: 400.0 mg/kg/injection, schedule: Q01DX009 (ip), vehicle: saline with Tween-80
[7] = dose: 75.0 mg/kg/injection, schedule: Q01DX001 (ip), vehicle: saline
[8] = dose: 150.0 mg/kg/injection, schedule: Q01DX001 (ip), vehicle: saline
[9] = dose: 50.0 mg/kg/injection, schedule: Q01DX009 (ip), vehicle: saline with Tween-80
[10] = dose: 12.5 mg/kg/injection, schedule: Q01DX009 (ip), vehicle: saline with Tween-80
[11] = dose: 12.5 mg/kg/injection, schedule: Q01DX009 (ip), vehicle: water
[12] = dose: 100.0 mg/kg/injection, schedule: Q01DX001 (ip), vehicle: saline with Tween-80
[13] = dose: 200.0 mg/kg/injection, schedule: Q01DX001 (ip), vehicle: saline with Tween-80

Measured: T/C

CN1NC2(O)C(=O)N(C3CCCCC3)CC2C1c1ccccc1 (stereo unspecified)
inactive: [1] 86 % of control | [2] 93 % of control | [3] 101 % of control

O=C(C1=CCCCC1)c1ccc(-c2ccccc2)cc1
inactive: [4] 102 % of control | [1] 95 % of control | [5] 91 % of control | [2] 95 % of control | [6] 96 % of control | [3] 93 % of control

O=[N+]([O-])c1ccc(N=C(Cl)N2CCCCC2)cc1
inactive: dose: 100.0 mg/kg/injection, schedule: Q01DX001 (ip), vehicle: saline 109 % of control | dose: 200.0 mg/kg/injection, schedule: Q01DX001 (ip), vehicle: saline 103 % of control | dose: 400.0 mg/kg/injection, schedule: Q01DX001 (ip), vehicle: saline 107 % of control

COc1cccc(OC)c1OC(=O)/C=C/C(=O)Oc1c(OC)cccc1OC
inactive: [4] 96 % of control | [5] 96 % of control | [6] 98 % of control

NC(=O)CC=O
inactive: [7] 98 % of control | [8] 93 % of control | dose: 300.0 mg/kg/injection, schedule: Q01DX001 (ip), vehicle: saline 95 % of control

Cc1ccc(S(=O)(=O)NCC(Br)CBr)cc1 (stereo unspecified)
inactive: [4] 93 % of control | [1] 100 % of control | [5] 93 % of control | [2] 98 % of control | [6] 96 % of control | [3] 100 % of control

NC(=O)c1ccccc1N=NN(CCF)CCF
inactive: dose: 5.3 mg/kg/injection, schedule: Q04DX003 (ip), vehicle: saline with Tween-80 103 % of control | dose: 8.0 mg/kg/injection, schedule: Q04DX003 (ip), vehicle: saline with Tween-80 100 % of control | dose: 12.0 mg/kg/injection, schedule: Q04DX003 (ip), vehicle: saline with Tween-80 105 % of control

O=C(Oc1c(Cl)c(Cl)c(Cl)c(Cl)c1Cl)c1ccc([N+](=O)[O-])cc1
inactive: [4] 101 % of control | [5] 97 % of control | [6] 95 % of control

OC1(c2c(F)c(F)c(F)c(F)c2F)C2CCC1CC2 (stereo unspecified)
inactive: dose: 37.5 mg/kg/injection, schedule: Q04DX002 (ip), vehicle: saline with Tween-80 98 % of control | dose: 75.0 mg/kg/injection, schedule: Q04DX002 (ip), vehicle: saline with Tween-80 110 % of control | dose: 150.0 mg/kg/injection, schedule: Q04DX002 (ip), vehicle: saline with Tween-80 98 % of control | dose: 300.0 mg/kg/injection, schedule: Q04DX002 (ip), vehicle: saline with Tween-80 102 % of control

CCN(CCS)Cc1ccccc1
inactive: [1] 98 % of control

Nc1ncnc2sc3c(c12)CCCC3
inactive: dose: 50.0 mg/kg/injection, schedule: Q04DX003 (ip), vehicle: Klucel (hydroxypropylcellulose) (HPC) 96 % of control | dose: 100.0 mg/kg/injection, schedule: Q04DX003 (ip), vehicle: Klucel (hydroxypropylcellulose) (HPC) 100 % of control | dose: 200.0 mg/kg/injection, schedule: Q04DX003 (ip), vehicle: Klucel (hydroxypropylcellulose) (HPC) 91 % of control

O=C(NNC(=O)c1cccnc1)Nc1cccc(Cl)c1Cl
inactive: [9] 94 % of control | [5] 101 % of control

CC(Cc1ccc(O)cc1)NCC(O)c1ccc(O)c(O)c1 (stereo unspecified)
inactive: [10] 102 % of control and 104 % of control | dose: 25.0 mg/kg/injection, schedule: Q01DX009 (ip), vehicle: saline with Tween-80 103 % of control and 104 % of control | [9] 105 % of control and 111 % of control | [4] 108 % of control and 111 % of control | [5] 103 % of control and 111 % of control | [6] 113 % of control and 112 % of control

c1ccc(-c2nc3ccc4ccccc4c3nc2-c2ccccc2)cc1
inactive: [4] 94 % of control | [1] 98 % of control | [5] 96 % of control | [2] 92 % of control | [6] 96 % of control | [3] 92 % of control

COc1ccc(NC(=O)Nc2ccc(Br)cc2)cc1
inactive: [4] 88 % of control | [1] 96 % of control | [5] 89 % of control | [2] 98 % of control | [6] 89 % of control

CC(C)c1ccc(NC(=O)Nc2cccc3ccccc23)cc1
inactive: [1] 102 % of control | [2] 91 % of control | [3] 91 % of control

COc1ccc(CCNCCc2ccc(OC)c(OC)c2)cc1OC
inactive: [11] 95 % of control | dose: 25.0 mg/kg/injection, schedule: Q01DX009 (ip), vehicle: water 100 % of control | dose: 50.0 mg/kg/injection, schedule: Q01DX009 (ip), vehicle: water 102 % of control | dose: 100.0 mg/kg/injection, schedule: Q01DX009 (ip), vehicle: water 104 % of control

CCOC(=O)c1cc(=O)c2ccccc2[nH]1
inactive: dose: 50.0 mg/kg/injection, schedule: Q01DX001 (ip), vehicle: saline with Tween-80 93 % of control | [12] 98 % of control | [13] 90 % of control

C[C@@H](C[P+](c1ccccc1)(c1ccccc1)c1ccccc1)[C@](OC(=O)c1ccccc1)(C(=O)c1ccccc1)c1ccccc1
inactive: dose: 6.25 mg/kg/injection, schedule: Q01DX001 (ip), vehicle: saline with Tween-80 100 % of control | dose: 12.5 mg/kg/injection, schedule: Q01DX001 (ip), vehicle: saline with Tween-80 105 % of control | dose: 25.0 mg/kg/injection, schedule: Q01DX001 (ip), vehicle: saline with Tween-80 109 % of control

CCOC(=O)/C=C(/Nc1ccc(S(=O)(=O)F)cc1)c1ccccc1
inactive: dose: 100.0 mg/kg/injection, schedule: Q01DX009 (ip), vehicle: Klucel (hydroxypropylcellulose) (HPC) 100 % of control | dose: 200.0 mg/kg/injection, schedule: Q01DX009 (ip), vehicle: Klucel (hydroxypropylcellulose) (HPC) 100 % of control | dose: 400.0 mg/kg/injection, schedule: Q01DX009 (ip), vehicle: Klucel (hydroxypropylcellulose) (HPC) 97 % of control

c1ccc(-c2cc(-c3ccccc3)[o+]c(-c3ccccc3)c2)cc1
inactive: dose: 3.13 mg/kg/injection, schedule: Q01DX009 (ip), vehicle: saline with Tween-80 100 % of control | dose: 3.13 mg/kg/injection, schedule: Q04DX003 (ip), vehicle: saline 101 % of control | dose: 6.25 mg/kg/injection, schedule: Q01DX009 (ip), vehicle: saline with Tween-80 100 % of control | dose: 6.25 mg/kg/injection, schedule: Q04DX003 (ip), vehicle: saline 98 % of control | [10] 97 % of control | dose: 12.5 mg/kg/injection, schedule: Q04DX003 (ip), vehicle: saline 104 % of control | [1] 95 % of control

COc1cccc2c1C(=O)c1c(O)c3c(c(O)c1C2=O)C[C@@](O)(C(=O)CSc1ccccc1)C[C@@H]3OC1CC(N)C(O)C(C)O1 (stereo partly specified)
inactive: dose: 0.78 mg/kg/injection, schedule: Q01DX009 (ip), vehicle: water 107 % of control | dose: 1.56 mg/kg/injection, schedule: Q01DX009 (ip), vehicle: water 106 % of control | dose: 3.13 mg/kg/injection, schedule: Q01DX009 (ip), vehicle: water 101 % of control | dose: 6.25 mg/kg/injection, schedule: Q01DX009 (ip), vehicle: water 106 % of control | [11] 101 % of control

O=C1C2CC=CCC2C(=O)C2CC=CCC12 (stereo unspecified)
inactive: [12] 92 % of control | [13] 92 % of control | dose: 400.0 mg/kg/injection, schedule: Q01DX001 (ip), vehicle: saline with Tween-80 101 % of control

CC(=O)N(C)c1ccc(C)cc1C
inactive: [4] 93 % of control | [5] 96 % of control | [6] 98 % of control

O=C1CCCCC1CNCc1ccccc1 (stereo unspecified)
inactive: [7] 102 % of control | [8] 93 % of control

NC(=O)N(CCO)CCO
inactive: dose: 100.0 mg/kg/injection, schedule: Q01DX009 (ip), vehicle: saline 111 % of control | dose: 200.0 mg/kg/injection, schedule: Q01DX009 (ip), vehicle: saline 107 % of control | dose: 400.0 mg/kg/injection, schedule: Q01DX009 (ip), vehicle: saline 101 % of control
